In US10597387B2, “Methods to treat lymphoplasmacytic lymphoma” (Dana-Farber Cancer Institute, Inc., priority 2013, dated 2020):
Like-named read-outs stand apart in the source and are kept apart here.

Columns and labels:
Assay in all cases: KiNativ kinase profiling
AurA = AurA (Homo sapiens (Human), UniProt O14965); type: binding; settings: Lys2, A375 cells, read-out: inhibition of kinase labeling
BRAF = BRAF (Homo sapiens (Human), UniProt P15056, V600E); type: binding; settings: Lys2, A375 cells, read-out: inhibition of kinase labeling
BTK = BTK (Homo sapiens (Human), UniProt Q06187); type: binding; settings: read-out: inhibition of kinase labeling
Sequence of BTK (Q06187 whole entry): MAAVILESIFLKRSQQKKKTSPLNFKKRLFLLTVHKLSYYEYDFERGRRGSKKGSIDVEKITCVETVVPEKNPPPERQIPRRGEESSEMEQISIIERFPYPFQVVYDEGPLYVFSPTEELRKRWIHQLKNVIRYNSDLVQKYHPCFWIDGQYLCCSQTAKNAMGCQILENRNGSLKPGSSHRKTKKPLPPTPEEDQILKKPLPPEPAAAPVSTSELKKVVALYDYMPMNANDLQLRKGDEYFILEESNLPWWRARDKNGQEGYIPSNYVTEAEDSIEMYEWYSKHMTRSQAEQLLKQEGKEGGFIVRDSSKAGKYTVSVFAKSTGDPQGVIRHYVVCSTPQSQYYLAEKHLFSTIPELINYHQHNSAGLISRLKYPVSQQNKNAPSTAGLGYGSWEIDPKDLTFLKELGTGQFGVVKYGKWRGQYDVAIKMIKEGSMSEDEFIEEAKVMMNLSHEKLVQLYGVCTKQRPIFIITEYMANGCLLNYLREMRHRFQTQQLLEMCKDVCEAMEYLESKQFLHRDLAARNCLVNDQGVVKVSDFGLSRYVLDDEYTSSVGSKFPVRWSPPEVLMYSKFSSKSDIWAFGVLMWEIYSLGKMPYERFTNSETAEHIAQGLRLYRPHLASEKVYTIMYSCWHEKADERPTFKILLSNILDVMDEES

CDK11, CDK8 = type: binding, Homo sapiens; settings: Lys2, 1 μM, A375 cells
CHK2 = CHK2 (Homo sapiens (Human), UniProt O96017); type: binding; settings: Lys1, A375 cells, read-out: inhibition of kinase labeling
Sequence of CHK2 (O96017 whole entry): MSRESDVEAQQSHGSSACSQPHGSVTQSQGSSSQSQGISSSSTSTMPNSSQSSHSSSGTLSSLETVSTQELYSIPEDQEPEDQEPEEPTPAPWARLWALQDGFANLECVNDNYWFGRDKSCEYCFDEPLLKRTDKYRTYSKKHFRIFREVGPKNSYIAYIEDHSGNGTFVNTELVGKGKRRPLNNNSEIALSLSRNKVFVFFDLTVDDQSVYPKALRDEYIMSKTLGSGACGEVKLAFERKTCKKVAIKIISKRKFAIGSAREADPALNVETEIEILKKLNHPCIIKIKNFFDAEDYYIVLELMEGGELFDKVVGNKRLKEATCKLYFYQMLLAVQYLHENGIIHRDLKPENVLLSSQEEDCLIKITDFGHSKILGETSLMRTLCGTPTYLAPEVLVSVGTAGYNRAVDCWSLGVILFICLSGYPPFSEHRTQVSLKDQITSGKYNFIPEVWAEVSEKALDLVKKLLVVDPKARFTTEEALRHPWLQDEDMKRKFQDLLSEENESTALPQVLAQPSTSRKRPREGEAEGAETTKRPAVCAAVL

CSK = CSK (Homo sapiens (Human), UniProt P41240); type: binding; settings: Activation Loop, A375 cells, read-out: inhibition of kinase labeling
Sequence of CSK (P41240 whole entry): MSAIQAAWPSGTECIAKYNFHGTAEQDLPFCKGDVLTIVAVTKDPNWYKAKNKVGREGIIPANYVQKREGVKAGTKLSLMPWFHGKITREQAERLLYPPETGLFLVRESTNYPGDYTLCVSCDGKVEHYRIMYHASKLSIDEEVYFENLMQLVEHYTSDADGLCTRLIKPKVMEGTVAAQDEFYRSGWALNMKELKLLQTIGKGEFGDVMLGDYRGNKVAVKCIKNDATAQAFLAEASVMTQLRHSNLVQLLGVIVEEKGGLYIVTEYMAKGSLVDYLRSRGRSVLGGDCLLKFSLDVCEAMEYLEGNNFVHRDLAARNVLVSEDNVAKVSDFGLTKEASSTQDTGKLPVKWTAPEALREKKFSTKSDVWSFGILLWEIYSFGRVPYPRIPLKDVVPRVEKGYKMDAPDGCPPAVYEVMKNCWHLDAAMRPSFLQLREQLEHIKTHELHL

FRAP = FRAP (Homo sapiens (Human), UniProt P42345); type: binding; settings: ATP, A375 cells, read-out: inhibition of kinase labeling
GCK = GCK (Homo sapiens (Human), UniProt Q12851); type: binding; settings: Lys2, A375 cells, read-out: inhibition of kinase labeling
Sequence of GCK (Q12851 whole entry): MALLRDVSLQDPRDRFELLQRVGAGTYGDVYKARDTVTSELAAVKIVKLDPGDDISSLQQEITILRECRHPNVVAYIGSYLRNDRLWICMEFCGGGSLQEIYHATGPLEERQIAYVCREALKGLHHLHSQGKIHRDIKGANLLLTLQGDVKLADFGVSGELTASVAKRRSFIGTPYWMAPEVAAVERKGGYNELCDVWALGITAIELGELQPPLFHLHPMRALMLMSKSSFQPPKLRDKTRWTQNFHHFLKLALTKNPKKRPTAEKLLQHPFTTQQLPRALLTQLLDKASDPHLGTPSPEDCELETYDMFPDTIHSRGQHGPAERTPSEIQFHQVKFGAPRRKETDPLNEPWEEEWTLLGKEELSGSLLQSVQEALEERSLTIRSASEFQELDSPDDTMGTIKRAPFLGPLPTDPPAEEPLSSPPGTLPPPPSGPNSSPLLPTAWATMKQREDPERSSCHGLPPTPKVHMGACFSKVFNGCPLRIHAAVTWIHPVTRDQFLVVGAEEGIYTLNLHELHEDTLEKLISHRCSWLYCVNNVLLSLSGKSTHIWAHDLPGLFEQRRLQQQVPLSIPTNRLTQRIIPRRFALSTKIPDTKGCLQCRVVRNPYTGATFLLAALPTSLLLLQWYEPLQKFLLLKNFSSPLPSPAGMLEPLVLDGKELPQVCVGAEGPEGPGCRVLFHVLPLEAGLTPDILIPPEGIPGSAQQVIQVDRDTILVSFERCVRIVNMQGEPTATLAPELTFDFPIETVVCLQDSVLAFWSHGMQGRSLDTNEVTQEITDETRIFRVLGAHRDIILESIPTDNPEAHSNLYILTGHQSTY

IKKe = IKKe (Homo sapiens (Human), UniProt Q14164); type: binding; settings: Lys1, A375 cells, read-out: inhibition of kinase labeling
IRAK4 = IRAK4 (Homo sapiens (Human), UniProt Q9NWZ3); type: binding; settings: Lys2, A375 cells, read-out: inhibition of kinase labeling
JNK1, JNK2, JNK3 = type: binding, Homo sapiens; settings: Lys2, 1 μM, A375 cells
MAP2K3 = MAP2K3 (Homo sapiens (Human), UniProt P46734); type: binding; settings: Lys2, A375 cells, read-out: inhibition of kinase labeling
MAP2K6 = MAP2K6 (Homo sapiens (Human), UniProt P52564); type: binding; settings: Lys2, A375 cells, read-out: inhibition of kinase labeling
MAP3K2, MAP3K3 = type: binding, Homo sapiens; settings: Lys2, 1 μM, A375 cells
MAP3K4 = MAP3K4 (Homo sapiens (Human), UniProt Q9Y6R4); type: binding; settings: Lys2, A375 cells, read-out: inhibition of kinase labeling
Sequence of MAP3K4 (Q9Y6R4 whole entry): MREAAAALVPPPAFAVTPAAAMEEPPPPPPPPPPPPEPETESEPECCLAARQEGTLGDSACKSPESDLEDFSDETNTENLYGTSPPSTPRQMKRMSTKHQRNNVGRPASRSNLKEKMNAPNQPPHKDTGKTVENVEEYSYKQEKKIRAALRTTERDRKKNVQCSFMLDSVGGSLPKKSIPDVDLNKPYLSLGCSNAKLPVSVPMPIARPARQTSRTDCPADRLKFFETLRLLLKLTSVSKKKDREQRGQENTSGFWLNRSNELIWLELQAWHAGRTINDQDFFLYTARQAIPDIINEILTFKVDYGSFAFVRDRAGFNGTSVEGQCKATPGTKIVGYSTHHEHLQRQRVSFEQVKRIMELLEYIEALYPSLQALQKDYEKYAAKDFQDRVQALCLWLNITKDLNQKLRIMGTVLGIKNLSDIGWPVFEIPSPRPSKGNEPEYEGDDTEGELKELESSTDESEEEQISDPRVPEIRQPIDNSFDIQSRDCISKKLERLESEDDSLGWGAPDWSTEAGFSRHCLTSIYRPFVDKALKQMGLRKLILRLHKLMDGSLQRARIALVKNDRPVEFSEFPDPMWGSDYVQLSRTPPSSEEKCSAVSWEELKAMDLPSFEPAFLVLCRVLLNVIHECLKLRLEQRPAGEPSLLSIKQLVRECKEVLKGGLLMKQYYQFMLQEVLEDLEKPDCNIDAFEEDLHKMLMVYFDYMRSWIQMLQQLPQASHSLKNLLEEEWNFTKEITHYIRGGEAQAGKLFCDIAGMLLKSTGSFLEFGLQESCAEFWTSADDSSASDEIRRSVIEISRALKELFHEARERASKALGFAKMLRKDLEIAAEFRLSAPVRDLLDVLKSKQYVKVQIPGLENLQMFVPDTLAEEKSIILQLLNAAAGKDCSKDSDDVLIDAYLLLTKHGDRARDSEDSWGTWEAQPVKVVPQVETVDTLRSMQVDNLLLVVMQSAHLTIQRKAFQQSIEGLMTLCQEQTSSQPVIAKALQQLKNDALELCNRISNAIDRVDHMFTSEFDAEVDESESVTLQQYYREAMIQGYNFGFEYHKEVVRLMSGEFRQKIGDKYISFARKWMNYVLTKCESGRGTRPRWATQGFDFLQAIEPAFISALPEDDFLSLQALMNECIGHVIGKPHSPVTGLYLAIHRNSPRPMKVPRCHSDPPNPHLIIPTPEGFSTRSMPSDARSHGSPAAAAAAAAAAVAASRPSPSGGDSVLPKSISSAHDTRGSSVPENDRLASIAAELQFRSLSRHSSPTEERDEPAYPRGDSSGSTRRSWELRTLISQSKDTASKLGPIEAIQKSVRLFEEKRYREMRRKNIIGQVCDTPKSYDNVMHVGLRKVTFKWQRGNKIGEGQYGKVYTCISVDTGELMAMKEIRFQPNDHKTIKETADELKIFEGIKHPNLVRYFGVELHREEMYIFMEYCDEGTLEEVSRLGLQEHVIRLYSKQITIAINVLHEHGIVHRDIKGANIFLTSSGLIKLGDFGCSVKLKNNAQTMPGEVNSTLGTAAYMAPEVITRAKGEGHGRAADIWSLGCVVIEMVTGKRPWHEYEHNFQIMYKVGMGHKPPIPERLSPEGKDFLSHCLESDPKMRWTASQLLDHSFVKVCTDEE

MARK3 = MARK3 (Homo sapiens (Human), UniProt P27448); type: binding; settings: Lys1, A375 cells, read-out: inhibition of kinase labeling
Sequence of MARK3 (P27448 whole entry): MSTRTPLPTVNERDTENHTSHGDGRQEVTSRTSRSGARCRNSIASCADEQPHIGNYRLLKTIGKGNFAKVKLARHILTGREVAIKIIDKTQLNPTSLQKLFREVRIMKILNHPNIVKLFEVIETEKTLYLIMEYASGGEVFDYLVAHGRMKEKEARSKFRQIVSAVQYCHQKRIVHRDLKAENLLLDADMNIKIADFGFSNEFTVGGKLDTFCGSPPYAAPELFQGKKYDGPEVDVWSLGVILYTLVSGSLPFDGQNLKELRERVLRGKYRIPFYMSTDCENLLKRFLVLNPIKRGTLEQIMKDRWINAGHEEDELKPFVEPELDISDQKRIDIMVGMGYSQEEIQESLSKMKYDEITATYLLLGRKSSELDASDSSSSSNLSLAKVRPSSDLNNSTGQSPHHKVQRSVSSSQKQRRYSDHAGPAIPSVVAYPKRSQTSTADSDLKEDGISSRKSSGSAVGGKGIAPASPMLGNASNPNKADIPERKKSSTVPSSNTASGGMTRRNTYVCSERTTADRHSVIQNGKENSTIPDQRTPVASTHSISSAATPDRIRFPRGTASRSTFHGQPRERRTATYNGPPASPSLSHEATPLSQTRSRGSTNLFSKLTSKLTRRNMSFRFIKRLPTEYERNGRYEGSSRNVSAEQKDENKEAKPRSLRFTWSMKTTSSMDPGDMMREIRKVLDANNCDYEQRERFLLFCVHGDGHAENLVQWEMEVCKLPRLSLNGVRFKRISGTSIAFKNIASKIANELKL

MAST3 = MAST3 (Homo sapiens (Human), UniProt O60307); type: binding; settings: Lys2, A375 cells, read-out: inhibition of kinase labeling
MASTL = MASTL (Homo sapiens (Human), UniProt Q96GX5); type: binding; settings: Lys1, A375 cells, read-out: inhibition of kinase labeling
MST3 = MST3 (Homo sapiens (Human), UniProt Q9Y6E0); type: binding; settings: Lys2, A375 cells, read-out: inhibition of kinase labeling
NEK9 = NEK9 (Homo sapiens (Human), UniProt Q8TD19); type: binding; settings: Lys2, A375 cells, read-out: inhibition of kinase labeling
PIP4K2A = PIP4K2A (Homo sapiens (Human), UniProt P48426); type: binding; settings: ATP, A375 cells, read-out: inhibition of kinase labeling
PIP4K2C = PIP4K2C (Homo sapiens (Human), UniProt Q8TBX8); type: binding; settings: ATP, A375 cells, read-out: inhibition of kinase labeling
PITSLRE = type: binding, Homo sapiens; settings: Lys2, 1 μM, A375 cells
PKD3 = PKD3 (Homo sapiens (Human), UniProt O94806); type: binding; settings: Lys2, A375 cells, read-out: inhibition of kinase labeling
PKR = PKR (Homo sapiens (Human), UniProt P19525); type: binding; settings: Lys2, A375 cells, read-out: inhibition of kinase labeling
PLK1 = PLK1 (Homo sapiens (Human), UniProt P53350); type: binding; settings: Lys1, A375 cells, read-out: inhibition of kinase labeling
PYK2 = PYK2 (Homo sapiens (Human), UniProt Q14289); type: binding; settings: Activation Loop, A375 cells, read-out: inhibition of kinase labeling
ROCK1, ROCK2 = type: binding, Homo sapiens; settings: Lys2, 1 μM, A375 cells
RSK1 domain1 = RSK1 domain1 (Homo sapiens (Human), UniProt Q15418); type: binding; settings: Lys2, A375 cells, read-out: inhibition of kinase labeling
STLK6 = STLK6 (Homo sapiens (Human), UniProt Q9C0K7); type: binding; settings: Lys2, A375 cells, read-out: inhibition of kinase labeling
TAO2 = TAO2 (Homo sapiens (Human), UniProt Q9UL54); type: binding; settings: Lys2, A375 cells, read-out: inhibition of kinase labeling
TEC = TEC (Homo sapiens (Human), UniProt P42680); type: binding; settings: Activation Loop, A375 cells, read-out: inhibition of kinase labeling
TLK1 = TLK1 (Homo sapiens (Human), UniProt Q9UKI8); type: binding; settings: Lys2, A375 cells, read-out: inhibition of kinase labeling
[1] = system: ZC1/HGK, ZC2/TNIK, ZC3/MINK; type: binding, Homo sapiens; settings: Lys2, 1 μM, A375 cells

Cc1ccc(C(=O)Nc2cccc(C(C)(C)C#N)c2)cc1NC(=O)c1cncc(-c2cccs2)c1 [I-6, N-(5-((3-(2-cyanopropan-2-yl)phenyl)carbamoyl)-2-methylphenyl)-5-(thiophen-2-yl)nicotinamide]
inhibition at 1 µM (AurA): -21.6%
inhibition at 1 µM (BRAF): -20.3%
inhibition at 1 µM (BTK; Activation Loop, A375 cells): -12.5%
inhibition at 1 µM (BTK; Lys1, A375 cells): 7.8%
inhibition of kinase labeling (CDK11, CDK8): 20.7%
inhibition at 1 µM (CHK2): 4.7%
inhibition at 1 µM (CSK): 23.3%
inhibition at 1 µM (FRAP): -8.8%
inhibition at 1 µM (GCK): 21.9%
inhibition at 1 µM (IKKe): 3.8%
inhibition at 1 µM (IRAK4): -1.4%
inhibition of kinase labeling (JNK1, JNK2, JNK3): 11.7%
inhibition at 1 µM (MAP2K3): 4.9%
inhibition at 1 µM (MAP2K6): 9.4%
inhibition of kinase labeling (MAP3K2, MAP3K3): −15.3%
inhibition at 1 µM (MAP3K4): 6.5%
inhibition at 1 µM (MARK3): -2.2%
inhibition at 1 µM (MAST3): 18.9%
inhibition at 1 µM (MASTL): -3.7%
inhibition at 1 µM (MST3): -0.4%
inhibition at 1 µM (NEK9): -0.3%
inhibition at 1 µM (PIP4K2A): 12.8%
inhibition at 1 µM (PIP4K2C): 12.3%
inhibition of kinase labeling (PITSLRE): 1.9%
inhibition at 1 µM (PKD3): -4.5%
inhibition at 1 µM (PKR): 3.2%
inhibition at 1 µM (PLK1): -5.4%
inhibition at 1 µM (PYK2): 5.4%
inhibition of kinase labeling (ROCK1, ROCK2): 12.7%
inhibition at 1 µM (RSK1 domain1): 33.3%
inhibition at 1 µM (STLK6): 44.8%
inhibition at 1 µM (TAO2): 33.4%
inhibition at 1 µM (TEC): -28.9%
inhibition at 1 µM (TLK1): 3.9%
inhibition of kinase labeling [1]: 27%
